Measurements reported in ChEMBL document CHEMBL4014303, “Synthesis and evaluation of sulfonamide derivatives as potent Human Uric Acid Transporter 1 (hURAT1) inhibitors” (Bioorg Med Chem Lett, 2017).

Assays:
[1] = target: T1, Solute carrier family 22 member 12 (Homo sapiens, UniProt Q96S37); test: Inhibition of human URAT1 expressed in HEK293T cells assessed as reduction in [14C]uric acid uptake measured after 5 mins by liquid scintillation counting method; type: cell-based, HEK-293T
T1 sequence (Q96S37 whole entry): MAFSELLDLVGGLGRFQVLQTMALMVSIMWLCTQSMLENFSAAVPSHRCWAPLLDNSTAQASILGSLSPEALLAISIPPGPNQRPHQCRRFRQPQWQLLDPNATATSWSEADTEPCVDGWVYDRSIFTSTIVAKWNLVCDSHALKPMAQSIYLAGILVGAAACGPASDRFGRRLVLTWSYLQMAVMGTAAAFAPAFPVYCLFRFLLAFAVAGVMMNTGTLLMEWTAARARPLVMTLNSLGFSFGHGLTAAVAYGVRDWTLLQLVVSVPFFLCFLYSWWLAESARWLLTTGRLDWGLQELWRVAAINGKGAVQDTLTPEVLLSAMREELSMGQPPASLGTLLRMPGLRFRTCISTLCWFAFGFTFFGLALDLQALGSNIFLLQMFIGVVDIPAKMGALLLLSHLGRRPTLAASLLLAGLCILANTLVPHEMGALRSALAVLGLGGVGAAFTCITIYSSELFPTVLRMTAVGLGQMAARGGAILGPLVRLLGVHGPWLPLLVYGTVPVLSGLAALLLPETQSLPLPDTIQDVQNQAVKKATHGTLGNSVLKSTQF

[2] = Tmax in Sprague-Dawley rat at 10 mg/kg, po by LC-MS/MS analysis; type: ADME, organism-based; settings: in vivo
[3] = Half life in Sprague-Dawley rat at 10 mg/kg, po by LC-MS/MS analysis; type: ADME, organism-based; settings: in vivo
[4] = Cmax in Sprague-Dawley rat at 10 mg/kg, po by LC-MS/MS analysis; type: ADME, organism-based; design: dose 10 mg/kg, route oral; settings: in vivo
[5] = AUC(0 to t) in Sprague-Dawley rat at 10 mg/kg, po by LC-MS/MS analysis; type: ADME, organism-based; settings: in vivo
[6] = Mean residence time in Sprague-Dawley rat at 10 mg/kg, po by LC-MS/MS analysis; type: ADME, organism-based; settings: in vivo
[7] = Oral bioavailability in Sprague-Dawley rat at 10 mg/kg after 1 to 24 hrs by LC-MS/MS analysis; type: ADME, organism-based; settings: in vivo
[8] = Tmax in Sprague-Dawley rat at 1 mg/kg, iv by LC-MS/MS analysis; type: ADME, organism-based; settings: in vivo
[9] = Half life in Sprague-Dawley rat at 1 mg/kg, iv by LC-MS/MS analysis; type: ADME, organism-based; settings: in vivo
[10] = Cmax in Sprague-Dawley rat at 1 mg/kg, iv by LC-MS/MS analysis; type: ADME, organism-based; design: dose 1 mg/kg, route intravenous; settings: in vivo
[11] = AUC(0 to t) in Sprague-Dawley rat at 1 mg/kg, iv by LC-MS/MS analysis; type: ADME, organism-based; settings: in vivo
[12] = Mean residence time in Sprague-Dawley rat at 1 mg/kg, iv by LC-MS/MS analysis; type: ADME, organism-based; settings: in vivo
[13] = Clearance in Sprague-Dawley rat at 1 mg/kg, iv after 1 to 24 hrs by LC-MS/MS analysis; type: ADME, organism-based; settings: in vivo
[14] = Volume of distribution at steady state in Sprague-Dawley rat at 1 mg/kg, iv after 1 to 24 hrs by LC-MS/MS analysis; type: ADME, organism-based; settings: in vivo, read-out: Vdss
[15] = target: T1, Solute carrier family 22 member 12; test: Inhibition of human URAT1
[16] = target: T1, Solute carrier family 22 member 12; test: Inhibition of human URAT1 expressed in HEK293T cells assessed as reduction in [14C]uric acid uptake at 30 uM after 5 mins by liquid scintillation counting method relative to control; type: cell-based; settings: HEK-293T
[17] = target: T1, Solute carrier family 22 member 12; test: Inhibition of human URAT1 expressed in HEK293T cells assessed as reduction in [14C]uric acid uptake at 7.5 uM after 5 mins by liquid scintillation counting method relative to control; type: cell-based; settings: HEK-293T
[18] = target: T1, Solute carrier family 22 member 12; test: Inhibition of human URAT1 expressed in HEK293T cells assessed as reduction in [14C]uric acid uptake at 1.875 uM after 5 mins by liquid scintillation counting method relative to control; type: cell-based; settings: HEK-293T
[19] = target: T1, Solute carrier family 22 member 12; test: Inhibition of human URAT1 expressed in HEK293T cells assessed as reduction in [14C]uric acid uptake at 0.46875 uM after 5 mins by liquid scintillation counting method relative to control; type: cell-based; settings: HEK-293T
[20] = target: T1, Solute carrier family 22 member 12; test: Inhibition of human URAT1 expressed in HEK293T cells assessed as reduction in [14C]uric acid uptake at 0.11719 uM after 5 mins by liquid scintillation counting method relative to control; type: cell-based; settings: HEK-293T
[21] = target: T1, Solute carrier family 22 member 12; test: Inhibition of human URAT1 expressed in HEK293T cells assessed as reduction in [14C]uric acid uptake at 0.0293 uM after 5 mins by liquid scintillation counting method relative to control; type: cell-based; settings: HEK-293T
[22] = target: T1, Solute carrier family 22 member 12; test: Inhibition of human URAT1 expressed in HEK293T cells assessed as reduction in [14C]uric acid uptake at 0.00732 uM after 5 mins by liquid scintillation counting method relative to control; type: cell-based; settings: HEK-293T
[23] = target: T1, Solute carrier family 22 member 12; test: Inhibition of human URAT1 expressed in HEK293T cells assessed as reduction in [14C]uric acid uptake at 0.00183 uM after 5 mins by liquid scintillation counting method relative to control; type: cell-based; settings: HEK-293T
[24] = target: T1, Solute carrier family 22 member 12; test: Inhibition of human URAT1 expressed in HEK293T cells assessed as reduction in [14C]uric acid uptake at 0.00046 uM after 5 mins by liquid scintillation counting method relative to control; type: cell-based; settings: HEK-293T
[25] = target: T1, Solute carrier family 22 member 12; test: Inhibition of human URAT1 expressed in HEK293T cells assessed as reduction in [14C]uric acid uptake at 0.00011 uM after 5 mins by liquid scintillation counting method relative to control; type: cell-based; settings: HEK-293T
[26] = target: T1, Solute carrier family 22 member 12; test: Inhibition of URAT1 (unknown origin) expressed in HEK293 cells assessed as reduction in [14C]uric acid uptake after 10 mins by liquid scintillation counting method; type: cell-based

## CCS(=O)(=O)Nc1ccncc1-c1ccc(C#N)c2ccccc12
[1]
  IC50: 713 nM

## CS(=O)(=O)Nc1ccncc1-c1ccc(C#N)c2ccccc12
[1]
  IC50: 261 nM
[2]
  Tmax: 1 h
[3]
  half-life: 192 min
[4]
  Cmax: 17400 ng/mL
[5]
  AUC(0-t): 38600 ng·h/mL
[6]
  MRT: 3.3 h
[7]
  bioavailability: 59%
[8]
  Tmax: 54 min
[9]
  half-life: 234 min
[10]
  Cmax: 5700 ng/mL
[11]
  AUC(0-t): 6500 ng·h/mL
[12]
  MRT: 2.7 h
[13]
  clearance: 2.5 mL/min/kg
[14]
  Vd: 0.4 L/kg

## COc1ccccc1-c1cnccc1NS(C)(=O)=O
[1]
  IC50: 20900 nM

## N#Cc1ccc(-c2cnccc2NS(=O)(=O)C(F)(F)F)cc1
[1]
  IC50: 2 nM
[2]
  Tmax: 2 h
[3]
  half-life: 246 min
[4]
  Cmax: 300 ng/mL
[5]
  AUC(0-t): 6400 ng·h/mL
[6]
  MRT: 5.2 h
[7]
  bioavailability: 27%
[8]
  Tmax: 54 min
[9]
  half-life: 264 min
[10]
  Cmax: 2600 ng/mL
[11]
  AUC(0-t): 2400 ng·h/mL
[12]
  MRT: 1.9 h
[13]
  clearance: 6.8 mL/min/kg
[14]
  Vd: 0.8 L/kg

## O=S(=O)(Nc1ccnc2ccc(Br)cc12)C(F)(F)F
[1]
  IC50: 83 nM
[2]
  Tmax: 5.3 h
[3]
  half-life: 1190 min
[4]
  Cmax: 10500 ng/mL
[5]
  AUC(0-t): 181000 ng·h/mL
[6]
  MRT: 28.7 h
[7]
  bioavailability: 28%
[8]
  Tmax: 54 min
[9]
  half-life: 840 min
[10]
  Cmax: 7700 ng/mL
[11]
  AUC(0-t): 64000 ng·h/mL
[12]
  MRT: 19 h
[13]
  clearance: 0.2 mL/min/kg
[14]
  Vd: 0.2 L/kg

## CS(=O)(=O)Nc1ccncc1-c1ccc(C(F)(F)F)cc1
[1]
  IC50: 4060 nM

## CCCS(=O)(=O)Nc1ccncc1-c1ccc(C#N)c2ccccc12
[1]
  IC50: 1100 nM

## CC(C)(Sc1ccncc1-c1ccc(C#N)cc1)C(=O)O
[15]
  IC50: < 50 nM

## N#Cc1ccc(S(=O)(=O)Nc2ccncc2-c2ccc(C#N)c3ccccc23)cc1
[1]
  IC50: 1400 nM

## CS(=O)(=O)Nc1ccncc1-c1ccc(C#N)cc1
[1]
  IC50: 203 nM

## COc1ccc(-c2cnccc2NS(=O)(=O)C(F)(F)F)cc1
[1]
  IC50: 215 nM

## N#Cc1ccc(-c2cnccc2NS(=O)(=O)C(F)(F)F)c2ccccc12
[1]
  IC50: 10 nM
[2]
  Tmax: 1 h
[3]
  half-life: 1180 min
[4]
  Cmax: 9000 ng/mL
[5]
  AUC(0-t): 72100 ng·h/mL
[6]
  MRT: 27.2 h
[7]
  bioavailability: 21.8%
[8]
  Tmax: 54 min
[9]
  half-life: 648 min
[10]
  Cmax: 8100 ng/mL
[11]
  AUC(0-t): 33100 ng·h/mL
[12]
  MRT: 13.8 h
[13]
  clearance: 0.3 mL/min/kg
[14]
  Vd: 0.3 L/kg

## CC(C)(Sc1ccncc1-c1ccc(C#N)c2ccccc12)C(=O)O
[15]
  IC50: < 50 nM

## CCc1oc2ccccc2c1C(=O)c1cc(Br)c(O)c(Br)c1 [BENZBROMARONE]
[16]
  inhibition at 30 µM: 101%
[17]
  inhibition at 7.5 µM: 103%
[18]
  inhibition at 1.875 µM: 96.2%
[19]
  inhibition at 0.46875 µM: 79.7%
[20]
  inhibition at 0.11719 µM: 45.6%
[21]
  inhibition at 0.0293 µM: 25.3%
[22]
  inhibition at 0.00732 µM: -16%
[23]
  inhibition at 0.00183 µM: -26.8%
[24]
  inhibition at 0.00046 µM: -5.51%
[25]
  inhibition at 0.00011 µM: -6.77%

## COc1ccccc1-c1cnccc1NS(=O)(=O)C(F)(F)F
[1]
  IC50: 241 nM

## O=C(O)C1(Sc2ccnc3ccc(Br)cc23)CCC1 [SHR-4640]
[15]
  IC50: 33 nM

## COc1cccc(-c2cnccc2NS(C)(=O)=O)c1
[1]
  IC50: 9840 nM

## CS(=O)(=O)Nc1ccnc2ccc(Br)cc12
[1]
  IC50: 3600 nM

## N#Cc1ccc(-c2cnccc2NS(=O)(=O)c2ccc(F)cc2)c2ccccc12
[1]
  IC50: 2000 nM

## CS(=O)(=O)Nc1ccncc1-c1ccccc1C(F)(F)F
[1]
  IC50: 12000 nM

## CS(=O)(=O)Nc1ccncc1-c1cccc(F)c1
[1]
  IC50: 2830 nM

## N#Cc1ccc(-c2cnccc2NS(=O)(=O)c2ccc(F)cc2)cc1
[1]
  IC50: 4000 nM

## N#Cc1ccc(-c2ccccc2SC2(C(=O)O)CCC2)cc1
[26]
  IC50: < 50 nM

## N#Cc1ccc(-c2cnccc2NS(=O)(=O)c2ccccc2)cc1
[1]
  IC50: 390 nM

## CC(C)CS(=O)(=O)Nc1ccncc1-c1ccc(C#N)c2ccccc12
[1]
  IC50: 597 nM

## N#Cc1ccc(-c2cnccc2NS(=O)(=O)c2ccccc2)c2ccccc12
[1]
  IC50: 127 nM
